# From paper PMC12662691, “DDX3X Promotes Rotavirus Infection and Serves as an Antiviral Target” (Transboundary and Emerging Diseases, 2025)
# Experiments:
# MYAS33 RV strain [1] = test: EC50 determination of anti-RV activity by RT-qPCR, MYAS33 strain; type: cell-based; conditions: Rotavirus, 0.1 MOI, 24 h, read-out: EC50 against RV infection
# Procedure: (§1) Cells were seeded into 96-well plates, allowed to adhere, followed by drug inoculation in a concentration gradient along with RV infection at 0.1 MOI. After 24 h, cells were collected, total RNA was extracted, reverse transcription was performed, and RV was detected by RT-qPCR. The EC50 of the drug was calculated.
# MYAS33 RV strain [2] = test: Antiviral efficacy screen, western blot of viral proteins; type: cell-based, Rotavirus; conditions: range of drug concentrations
# Procedure: (a) Drugs were selected by gene dependent and network dependent strategy based on VP4 interacting proteins. (b) Cells were treated with a range of drug concentrations, and then, infected with MYAS33 RV strain. Subsequently, the cells were collected and subjected to western blot analysis to detect viral proteins.
# Cells were collected, washed with PBS, and digested with trypsin. The cells were then collected in PBS into centrifuge tubes. After centrifugation, the supernatant was discarded. The cells was lysed, and the resulting lysate was transferred to a new centrifuge tube. 5 × SDS-PAGE sample buffer was added, and the samples were boiled in a water bath. Subsequently, SDS-PAGE was performed, and the proteins were transferred onto nitrocellulose membranes. The membranes were blocked with 5% skim milk at room temperature, washed three times with TBST, and incubated overnight at 4°C with primary antibodies. After washing three times with TBST, corresponding secondary antibodies were added and incubated for 1 h at room temperature. Following three additional washes with TBST, ECL reagent was prepared and applied to the membrane. Finally, the membrane was exposed in a chemiluminescence imaging system.
# MSLH14 RV strain [3] = test: EC50 determination of anti-RV activity by RT-qPCR, MSLH14 strain; type: cell-based, Rotavirus
# Procedure: as §1
# SA11 RV strain = test: EC50 determination of anti-RV activity by RT-qPCR, SA11 strain; type: cell-based, Rotavirus
# Procedure: as §1
# MYAS33 RV strain [4] = test: RK-33 time course of RV infection, RT-qPCR; type: cell-based, Rotavirus
# Procedure: (§2) Figure 7 RK-33 inhibits RV infection. (a, b) Cells were incubated with 10 μM RK-33 and infected with MYAS33 RV strain. The viral detection was conducted at 3, 6, 12, and 24 hpi by RT-qPCR detection, and at 12 and 24 hpi by TCID50. (c, d) EC50 of RK-33 against MSLH14 and SA11 strains was measured. (e) Flowchart of in vivo drug experiment. (f) Weight gain rate of mice. (g) Intestinal virus titer detection in mice. (h) H&E staining of intestine. (i–l) Cytokine detection of spleen. Statistical significance is determined by Student's test (^∗p < 0.05; ^∗∗p < 0.01; ^∗∗∗p < 0.001; ^∗∗∗∗p < 0.0001). HD, high dose; LD, low dose; ns, not significant. […] The name RK-33 is printed only in the plot legends of panels a and b.
# Total RNA was extracted from collected samples using TRIzol reagent (Sangon Biotech) and subsequently reverse transcribed into cDNA using a premix reverse transcriptase (Vazyme). For qPCR analysis, a SYBR Green qPCR Mix kit (Promega) was utilized in combination with a CFX96 system. All procedures were carried out following the manufacturers' guidelines as described previously.
# MYAS33 RV strain [5] = test: RK-33 viral titer by TCID50; type: cell-based, Rotavirus
# Procedure: as §2
# MSLH14 RV strain [6] = test: In vivo drug experiment in RV-challenged neonatal mice; conditions: neonatal Kunming mice
# Procedure: Pregnant Kunming mice were individually housed and bred until delivery. Neonatal mice were raised for 1 week. Mice were inoculated with 10^4 TCID50 units of the MSLH14 RV strain via gavage. Drug administration was performed with 0.005 mg/g (low dose group) or 0.01 mg/g (high dose group). The drugs were dissolved in a solvent formulated as follows: 10% DMSO, 40% PEG300, 5% Tween-80, and 45% normal saline. Viral titers in the small intestine were determined using the TCID50 method. Spleens were collected for total RNA extraction, followed by reverse transcription and cytokine detection. For histopathological examination, tissues were fixed with 4% paraformaldehyde, paraffin embedded, sectioned into slices, and stained with hematoxylin and eosin following standard protocols as previously described.
# [7] = MSLH14, spleen, RT-qPCR, vs untreated controls
compound,measurement,setting,value
Cc1[nH]c2ccccc2c1CCNC(=O)c1cccs1 [CK-636],EC50,MYAS33 RV strain [1],5.3 µM
same,Inhibitory effect against RV infection (antiviral efficacy screen),MYAS33 RV strain [2],exhibited inhibitory effects
Cc1[nH]c2ccccc2c1CCNC(=O)c1ccccc1F [CK-666],EC50,MYAS33 RV strain [1],2.85 µM
same,Inhibitory effect against RV infection (antiviral efficacy screen),MYAS33 RV strain [2],exhibited inhibitory effects
Clc1cccc(N2CCN(c3cnnc4c(Cl)cccc34)CC2)c1 [FiVe 1],EC50,MYAS33 RV strain [1],3.99 µM
same,Inhibitory effect against RV infection (antiviral efficacy screen),MYAS33 RV strain [2],exhibited inhibitory effects
COc1ccc(Cn2c3ncnc4c(ncn4Cc4ccc(OC)cc4)c-3nc2=O)cc1 [RK-33],EC50,MYAS33 RV strain [1],1.05 µM
same,Inhibition of MSLH14 infection,MSLH14 RV strain [3],also inhibits SA11 and MSLH14 infections
same,EC50,"MSLH14 RV strain [3]; Rotavirus, 0.1 MOI, 24 h, RT-qPCR, read-out: EC50 against MSLH14",0.91 µM
same,Inhibition of SA11 infection,SA11 RV strain,also inhibits SA11 and MSLH14 infections
same,EC50,"SA11 RV strain; Rotavirus, 0.1 MOI, 24 h, RT-qPCR, read-out: EC50 against SA11",0.86 µM
same,Inhibitory effect against RV infection (antiviral efficacy screen),MYAS33 RV strain [2],exhibited inhibitory effects
same,Inhibitory effect on RV (RT-qPCR),"MYAS33 RV strain [4]; 10 μM RK-33, MYAS33, 3 hpi",no significant inhibitory effect
same,Inhibitory effect on RV (RT-qPCR),"MYAS33 RV strain [4]; 10 μM RK-33, MYAS33, 6 hpi",pronounced antiviral activity
same,Inhibitory effect on RV (RT-qPCR),"MYAS33 RV strain [4]; 10 μM RK-33, MYAS33, 12 hpi",pronounced antiviral activity
same,Inhibitory effect on RV (RT-qPCR),"MYAS33 RV strain [4]; 10 μM RK-33, MYAS33, 24 hpi",pronounced antiviral activity
same,Viral titer (TCID50),"MYAS33 RV strain [5]; 10 μM RK-33, MYAS33, 12 h",inhibited MYAS33 strain infection
same,Viral titer (TCID50),"MYAS33 RV strain [5]; 10 μM RK-33, MYAS33, 24 h",inhibited MYAS33 strain infection
same,Intestinal lesions (H&E histopathology),"MSLH14 RV strain [6]; MSLH14, 5 days postinfection",alleviated intestinal lesions
same,Spleen IFNG level,MSLH14 RV strain [6]; [7],significantly reduced levels
same,Spleen IL-1B level,MSLH14 RV strain [6]; [7],significantly reduced levels
same,Spleen IL-6 level,MSLH14 RV strain [6]; [7],significantly reduced levels
same,Spleen TNFA level,MSLH14 RV strain [6]; [7],significantly reduced levels
same,Recovery of body weight (weight gain rate),"MSLH14 RV strain [6]; MSLH14 by gavage, 0.005 mg/g (low dose) or 0.01 mg/g (high dose), vs untreated controls",faster recovery of body weight
same,Intestinal viral titer (TCID50),"MSLH14 RV strain [6]; MSLH14 by gavage, 0.005 or 0.01 mg/g, small intestine, vs untreated controls",significantly reduced
CC(COc1ccccc1Cc1ccccc1)N1CCCCC1 (centres unmarked) [benproperine phosphate],EC50,MYAS33 RV strain [1],4.69 µM
same,Inhibitory effect against RV infection (antiviral efficacy screen),MYAS33 RV strain [2],exhibited inhibitory effects
COCCCC/C(=N\OCCN)c1ccc(C(F)(F)F)cc1 [fluvoxamine],EC50,MYAS33 RV strain [1],14.8 µM
same,Inhibitory effect against RV infection (antiviral efficacy screen),MYAS33 RV strain [2],exhibited inhibitory effects
